Patent publication US9493524B2, “Methods for treatment of stroke or cerebrovascular accidents using an ETB receptor agonist” (MIDWESTERN UNIVERSITY, priority 2007, dated 2016)
Numbered stars: 1 amine (or outer) side, 2 acyl side, 3 side chain; on linkers, the order of the positions; unused ones are H or OH. Peptide text beside a SMILES is read from it. Suc = O=C(CCC(=O)[*:2])[*:1]

Experiments:
Assay type in all cases: in vivo, Sprague-Dawley rats
[1] = system: urethane anesthetized rat; assay: Renal blood perfusion by Laser Doppler Flowmetry; settings: BMS 5 and 15 mg/kg, i.v., BQ788 1 μg/kg
Procedure: (§1) Male Sprague-Dawley rats weighing 323±4 grams (g) were anesthetized with urethane (ethyl carbamate, Sigma Aldrich, St. Louis, Mo.) dissolved in isotonic saline (0.9% NaCl, Hospira, Inc., Lake Forest, Ill.). The rats were administered a dose of 0.15 g per 100 g body weight via intraperitoneal (i.p.) injection.
Renal Perfusion: The right kidney was dissected retroperitoneally. Renal perfusion was measured via a fiber optic probe (PF408) applied to the surface of the rat kidney. The probe was connected to a Periflux PF2b 4000 Laser Doppler Flowmetry unit (Perimed, Stockholm, Sweden).
(§2) The rats were randomly selected for various studies. Following surgery the rats were allowed to stabilize for 30 minutes and a 15 minutes baseline recording of all parameters (blood pressure, heart rate, cerebral blood flow, and renal blood flow) was obtained prior to the administration of the pretreatment followed by IRL-1620 (Suc-[Glu 9, Ala 11,15], American Peptide Co, Inc., Sunnyville, Calif.) or ET-1 (Ala 1,3,11,15, RBI Sigma, Natick, Mass.). BQ-788, a selective endothelin B antagonist, is the sodium salt of N-cis-2,6-dimethylpiperidinocarbonyl-L-gamma-methylleucyl-D-1-methoxycarbonyl triptophanyl-DNIe (see Proc. Natl. Acad. Sci. USA, 91, pp. 4892-4896 (1994)) BMS is BMS 182, 874, which is a selective endothelin A antagonist having a structure
(§3) Group 1: Animals (n=4) were pretreated with saline 15 minutes (min) prior to administration of IRL-1620 (5 μg/kg, i.v.).
(§4) Group 2: Animals (n=4) were pretreated with BMS (5 mg/kg, i.v.) 15 min prior to administration of IRL-1620 (5 μg/kg, i.v.).
(§5) Group 3: Animals (n=4) were pretreated with BMS (15 mg/kg, i.v.) 15 min prior to administration of IRL-1620 (5 μg/kg, i.v.).
(§6) Group 4: Animals (n=4) were pretreated with BQ788 (1 μg/kg, i.v.) 15 min prior to administration of IRL-1620 (5 μg/kg, i.v.).
(§7) Group 1: Animals (n=4) were pretreated with saline 15 min prior to administration of ET-1 (0.75 μg/kg, i.v.).
(§8) Group 2: Animals (n=4) were pretreated with BMS (5 mg/kg, i.v.) 15 min prior to administration of ET-1 (0.75 μg/kg, i.v.).
(§9) Group 3: Animals (n=4) were pretreated with BMS (15 mg/kg, i.v.) 15 min prior to administration of ET-1 (0.75 μg/kg, i.v.).
(§10) Group 4: Animals (n=4) were pretreated with BQ788 (1 μg/kg, i.v.) 15 min prior to administration of ET-1 (0.75 μg/kg, i.v.).
(§11) Blood pressure, heart rate, cerebral blood perfusion, and renal blood perfusion all were recorded for 2 hours following the final injection. Blood gases were analyzed prior to administration of any drugs, and at 60 and 120 min following administration of IRL-1620 or ET-1. At the end of each experiment, the animals were euthanized with an overdose of urethane i.v. In the figures, all data values are presented as mean±SEM. One-sample t-tests and one-way ANOVAs were used to test the differences within and between the groups. A P value of P<0.05 was considered significant.

[2] = system: urethane anesthetized rat; assay: Blood pressure / mean arterial pressure recording; settings: BMS 5 and 15 mg/kg, i.v., BQ788 1 μg/kg
Procedure: as §1
(§12) Blood Pressure and Heart Rate: The femoral vein and artery were cannulated. The arterial cannula was connected to a Gould P23 ID pressure transducer for recording the blood pressure on a Grass P7D polygraph through a 7PI preamplifier. The heart rate was recorded through a 7P4B Grass tachograph, triggered from blood pressure signals. Drugs were administered via the venous cannula.
as §2, §3, §4, §5, §6, §7, §8, §9, §10, §11

[3] = system: urethane anesthetized rat; assay: Cerebral blood perfusion by Laser Doppler Flowmetry; settings: BQ788 1 μg/kg
Procedure: as §1
Cerebral Perfusion: A burr hole was drilled into the rat skull about 2 millimeters (mm) to the left of midline. Cerebrovascular perfusion was measured via a fiber optic probe (PF407) applied to the surface of the rat brain. The probe was connected to a Periflux PF2b 4000 Laser Doppler Flowmetry unit (Perimed, Stockholm, Sweden).
as §2, §3, §4, §5, §6, §7, §8, §9, §10, §11

[4] = system: urethane anesthetized rat; assay: Heart rate recording; settings: IRL-1620 5 μg/kg, i.v.; for heart rate: 1 μg/kg BQ788 pretreatment, mean±SEM, in bpm (unit assumed)
Procedure: as §1, §12, §2, §3, §4, §5
Group 4: Animals (n=4) were pretreated with BQ788 (1 μg/kg, i.v.) 15 min prior to administration of IRL-1620 (5 μg/kg, i.v.). […]
as §11

[5] = system: urethane anesthetized rat; assay: Arterial blood gas analysis; settings: IRL-1620 5 μg/kg, i.v., ET-1 0.75 μg/kg
Procedure: as §1
Blood Gas Analysis: Arterial blood gases were monitored to determine the effects on pH, pCO2, and pO2. Blood was drawn from the arteriole cannula and analyzed using a GEM Premier 3000 unit (Instrument Laboratory, Lexington, Mass.).
as §11

[6] = time 0 min (prior to any drugs)

CCCC[C@@H](NC(=O)[C@@H](Cc1cn(C(=O)OC)c2ccccc12)NC(=O)[C@H](CC(C)(C)C)NC(=O)N1[C@H](C)CCC[C@@H]1C)C(=O)O [BQ788, N-cis-2,6-dimethylpiperidinocarbonyl-L-gamma-methylleucyl-D-1-methoxycarbonyl triptophanyl-DNIe]
effect of pretreatment on the effect of ET-1 on renal blood flow ([1]; ET-1 0.75 μg/kg, FIG. 10): No pretreatment significantly altered
effect of pretreatment on the effect of IRL-1620 on renal blood flow ([1]; IRL-1620 5 μg/kg, FIG. 9): effectively blocked
effect of pretreatment on the effect of ET-1 on mean arterial pressure ([2]; ET-1 0.75 μg/kg, FIG. 13): failed to alter
effect of pretreatment on the effect of IRL-1620 on mean arterial pressure ([2]; IRL-1620 5 μg/kg, FIG. 12): effectively blocked
effect of pretreatment on the effect of ET-1 on cerebral blood flow ([3]; BMS 5 and 15 mg/kg, i.v., ET-1 0.75 μg/kg, FIG. 7): no significant change
effect of pretreatment on the effect of IRL-1620 on cerebral blood flow ([3]; i.v. 15 min prior to IRL-1620 5 μg/kg, FIG. 6): effectively blocked
heart rate ([4]; time 0 min): 344 ± 5
heart rate ([4]; time 1 min): 350 ± 6
heart rate ([4]; time 5 min): 345 ± 4
heart rate ([4]; time 10 min): 345 ± 4
heart rate ([4]; time 15 min): 347 ± 3
heart rate ([4]; time 30 min): 347 ± 4
heart rate ([4]; time 45 min): 350 ± 6
heart rate ([4]; time 60 min): 351 ± 9
heart rate ([4]; time 90 min): 351 ± 13
heart rate ([4]; time 120 min): 353 ± 13
effect of pretreatment on the effect of IRL-1620 on heart rate (Table 1) ([4]; BMS 5 and 15 mg/kg, BQ788): effectively blocked

CC[C@H](C)[C@H](NC(=O)[C@H](CC(=O)O)NC(=O)[C@H](CC(C)C)NC(=O)[C@H](Cc1c[nH]cn1)NC(=O)[C@H](C)NC(=O)[C@H](Cc1ccccc1)NC(=O)[C@H](Cc1ccc(O)cc1)NC(=O)[C@@H](NC(=O)[C@H](C)NC(=O)[C@H](CCC(=O)O)NC(=O)[C@H](CCC(=O)O)NC(=O)[C@H](CC(=O)O)NC(=O)CCC(=O)O)C(C)C)C(=O)N[C@H](C(=O)N[C@@H](Cc1c[nH]c2ccccc12)C(=O)O)[C@@H](C)CC [IRL-1620, N-Succinyl-[Glu^9, Ala^11,15]-Endothelin 1 fragment 8-21] (Suc-DEEAVYFAHLDIIW-OH)
effect on arterial blood gases (text to Table 2) [5]: Neither IRL-1620 nor ET-1 significantly affected blood gases
arterial blood pCO2 [5, 6]: 42 ± 2
arterial blood pH [5, 6]: 7.32 ± 0.01
arterial blood pO2 [5, 6]: 103 ± 3
arterial blood pCO2 ([5]; time 60 min): 46 ± 6
arterial blood pH ([5]; time 60 min): 7.27 ± 0.01
arterial blood pO2 ([5]; time 60 min): 99 ± 9
arterial blood pCO2 ([5]; time 120 min): 32 ± 3
arterial blood pH ([5]; time 120 min): 7.29 ± 0.01
arterial blood pO2 ([5]; time 120 min): 113 ± 6
